The text below walks through data of US12350708B2, “Molecular coatings and methods of making and using the same” (Glisten LLC, priority 2019, dated 2025).

The data set is described as follows: water contact angle testing of diamond surfaces. The settings on record: diamond surface, Example 11, FIGS. 20A-20D; uncoated diamond approximately 65°. The format is physicochemical.
From the text: In some embodiments, water contact angle goniometry can be used to probe the surface properties and performance of the functionalized gemstones (e.g., of the diamond surface, of the surface after the anchor molecule is bound, and/or of the surface after the host molecule is bound forming an inclusion complex). In some embodiments, comparisons of water contact angle can be employed to analytically determine the specific coverage of adsorbed species pertaining to the anchor and to the host/guest complex. In some embodiments, water contact angle can be used to determine the durability of the gemstone coating by performing measurements at various stages of time after normal use after the host/guest inclusion complexes are formed. […]
(§1) Self-assembly of the β-cyclodextrin is analyzed with water contact angle. Angles will decrease according to the quantity of cyclodextrin residing on the substrate. The change in the refractive index of the surface after molecular coating is determined using optical ellipsometry. […]
as §1

`OC[C@H]1O[C@@H]2O[C@H]3[C@H](O)[C@@H](O)[C@@H](O[C@H]4[C@H](O)[C@@H](O)[C@@H](O[C@H]5[C@H](O)[C@@H](O)[C@@H](O[C@H]6[C@H](O)[C@@H](O)[C@@H](O[C@H]7[C@H](O)[C@@H](O)[C@@H](O[C@H]8[C@H](O)[C@@H](O)[C@@H](O[C@H]1[C@H](O)[C@H]2O)O[C@@H]8CO)O[C@@H]7CO)O[C@@H]6CO)O[C@@H]5CO)O[C@@H]4CO)O[C@@H]3CO` [b-cyclodextrin, β-cyclodextrin] displayed a contact angle of 61 °.
